Reference: patent publication EP2292587A1, “PHARMACEUTICAL COMPOSITION FOR INHIBITING THE TRANSCRIPTION FACTOR INDUCIBLE BY HYPOXIA, MODULATORS OF PATHOLOGICAL PROCESSES OF ANGIOGENESIS, ONCOGENESIS, INFLAMMATION, APOPTOSIS, AND CELLULAR THERAPY” (Fundacion De La Comunidad Valenciana Centro De …, priority 2008, dated 2009)

Experiments:
VEGF and COX-2 = assay: qPCR of VEGF and COX-2 in dental pulp stem cells; format: cell-based, human; conditions: 0.5 µM
Text: The culture medium used was Low-Glucose DMEM supplemented with 10% fetal bovine serum. The human dental pulp mesenchymal stem line [Gronthos S, et al., "Postnatal human dental pulp stem cells (DPSCs) in vitro and in vivo" Proc Natl Acad Sci U S A, 2000 Dec 5; 97(25):13625-30.; Gronthos S et al.,." Stem cell properties of human dental pulp stem cells" J Dent Res, 2002 Aug; 81(8):531-5], obtained from human third molars from adults (19-29 years of age), was provided by the Cardioregeneration Dept. of the CIPF. The cells were seeded at a density of 2000 cells/cm^2, and when they reached a 90% confluence they were subcultured again by means of trypsinization.
Total RNA was isolated using the commercial kit RNAeasy (Qiagen) and following the manufacturer's instructions. 1 µg of total RNA of each sample was retrotranscribed using the commercial kit Reverse Transcription Reagent (Applied Biosystem). The quantitative polymerase chain reaction (qPCR) was carried out using Taqman probes and primers designed by Applied Biosystem for hsVEGF (Ref HS00173626_m1), hsCOX-2 (Ref Hs00153133_m1) and hsGAPDH (Ref HS 99999905_m1). […] The expression levels of VEGF and COX-2 were expressed as the increase of Ct with respect to the expression levels of GAPDH (constitutive expression gene): Ct (ΔCt)=Ct (VEGF or […])-Ct (GAPDH). […]

epSPCs [1] = assay: differentiation of epSPCs into oligodendrocytes (immunocytochemistry); format: cell-based, rat; conditions: 500 nM, 1% O2
Text: The hypoxic condition blocks stem cell differentiation, and it is well acknowledged that this process is due to the activity of the HIF proteins. The exposure of ependymal stem cells to a low concentration of oxygen (1% O2) prevents the progress of differentiation aimed at the oligodendrocyte glial strain, clearly shown by both the morphological characteristics of the culture and by the low expression of typical markers of this cell strain (NG2, RIP, 04).
The analysis of the expression of the cell markers Rip, NG2 and 04 in the presence or absence of FM19G11 under normoxic and/or hypoxic conditions was carried out by immunocytochemical techniques (Figure 15). After fixing the cell culture with paraformaldehyde (4%), it was permeabilized with Triton (0.05%) for 10 minutes, and after blocking non-specific bindings with fetal bovine serum (1%), it was incubated with the corresponding antibodies (acquired from Chemicon, USA). Secondary antibodies conjugated with different fluorochromes, rhodamine in rabbit IgG and fluorescein in mouse IgG, reveal the specific labeling of the primary antibodies. DAPI (Sigma Aldrich Co, UK) was used for the counterstaining of the nuclei.

epSPCs [2] = assay: proliferation (ATP, CellTiter-Glo) and neurosphere formation of epSPCs; format: cell-based, rat; conditions: for rates of proliferation (ATP): 500 nM
Procedure: The accumulation of ATP, a metabolite directly related to the increase of metabolic activity and therefore with the proliferative activity, was determined with the commercial CellTiter-Glo® luminescent cell viability kit (Promega, Madison, WI).

ATR = assay: activation kinetics of ATR (Western blot), HCT116/p53+/+; format: cell-based, human; conditions: 0.5 µM, after 1 hour
Text: To determine the degree of involvement of p53 in the possible effects caused by FM19G11, a HCT116 colon cancer cell line with expression of p53 and the same HCT116 line in which p53 was inactivated by homologous recombination were used (Bunz, F, Dutriaux, A, Lengauer, C, Waldman, T, Zhou, S, Brown, JP et al., (1998) Requirement for p53 and p21 to sustain G2 arrest after DNA damage. Science 282: 1497-501; Bunz, F, Hwang, PM, Torrance, C, Waldman, T, Zhang, Y, Dillehay, L et al., (1999) Disruption of p53 in human cancer cells alters the responses to therapeutic agents. J Clin Invest 104: 263-9.). The HCT116/p53^+/+ and HCT116/p53^-/- cells were exposed to FM19G11 (0.5 µM) at different times, the phosphorylation (activation) pattern of the ATR protein and of p53 which can be phosphorylated by ATR (Tibbetts, RS, Brumbaugh, KM, Williams, JM, Sarkaria, JN, Cliby, WA, Shieh, SY et al., (1999) A role for ATR in the DNA damage-induced phosphorylation of p53. Genes Dev 13: 152-7.), in p53-proficient HCT116 cells, as well as ATR in p53-deficient cells being analyzed (Figure 23). […] This quick activation of ATR coincides with that of p53 in HCT116/p53^+/+ cells after 1 hour of treatment with FM19G11 (0.5 µM), but the activation of p53 remains virtually on the expression of cells without drug, for the different times analyzed.

[3] = tested on: histone deacetylase (HDAC); assay: HDAC Fluorimetric Cellular Activity Assay, HeLa cell extracts; format: cell-based; conditions: different concentrations
Procedure: Since FM19G11 was capable of affecting the degree of acetylation of histone H3 and therefore the conformation of chromatin, it was evaluated if FM19G11 favored the transfer of acetyl groups to histone H3 or, on the contrary, prevented histone H3 from being deacetylated. Both effects would cause an increase of the degree of acetylation of histone H3. Immunoprecipitation assays were performed with an antibody recognizing acetyltransferase p300 and then assays for measuring the acetyltransferase activity by means of using the kit "HAT Colorimetric Assay" (BioVision) were carried out. This method consists of detecting NADH since peptide acetylation causes the release of the free form of Coenzyme A, which serves as an essential coenzyme for producing NADH.
The protein extracts were previously immunoprecipitated with an anti-p300 antibody and the acetyltransferase activity measured by the detection of NADH. The evaluation of the histone deacetylase (HDAC) activity (Figure 34 B) was carried out with protein extracts of HeLa cells treated with different concentrations of FM19G11. As a positive control, a fixed concentration of TSA (1 µM) was included and extracts of untreated cells were used as a control. The experiments were carried out following the instructions of the Biomol kit for detecting histone deacetylase activity (HDAC Fluorimetric Cellular Activity Assay, Biomol, Cat. No. AK-503). […]

Cc1ccc(C(=O)COC(=O)c2cccc(NC(=O)c3ccc([N+](=O)[O-])cc3[N+](=O)[O-])c2)cc1 [FM19G11, 2-oxo-2-(p-tolyl)ethyl 3-((2,4-dinitro)benzamido)benzoate]
increase of both VEGF and COX-2 (mRNA) (VEGF and COX-2; hypoxic conditions, 6 and 18 hours): inhibited
expression levels of VEGF and COX-2 (VEGF and COX-2; normoxic conditions): did not cause any effect
expression levels of the oligodendrocyte markers (NG2, RIP, 04) and phenotype (epSPCs [1]): recovers the expression levels
rates of proliferation (ATP) (epSPCs [2]; 48 hours, ~20% O2): increases the rates of proliferation
rates of proliferation (ATP) (epSPCs [2]; hypoxic conditions (1% O2)): not reproduced
formation of neurospheres (epSPCs [2]; normoxic conditions (20% O2)): favors the formation of neurospheres
phosphorylation of ATR (ATR): quick increase
activity as a histone deacetylase inhibitor [3]: did not show activity
